Test results published in ChEMBL document CHEMBL1909046, “DrugMatrix in vitro pharmacology data”.
*1 amine or outer side, *2 acyl side, *3 side chain or, on linkers, in order; H or OH if unused. Where a SMILES comes first, the peptide text is derived from it. Bridges are numbered along the chain shown (N, C = ends). Roman numbers before positions name the chains, in order. [ ]: non-standard residue; d: D form. Actinocin(1to9) = Cc1c2oc3c(C)ccc(C(=O)[*:2])c3nc-2c(C(=O)[*:1])c(N)c1=O; NMeV = CN[C@H](C(=O)O)C(C)C; Sar = CNCC(=O)O

Experiments:
[1] = target: Delta-type opioid receptor (Homo sapiens, UniProt P41143); assay type: cell membranes, HEK293, Membrane; conditions: hek293
Sequence of Delta-type opioid receptor (P41143 whole entry): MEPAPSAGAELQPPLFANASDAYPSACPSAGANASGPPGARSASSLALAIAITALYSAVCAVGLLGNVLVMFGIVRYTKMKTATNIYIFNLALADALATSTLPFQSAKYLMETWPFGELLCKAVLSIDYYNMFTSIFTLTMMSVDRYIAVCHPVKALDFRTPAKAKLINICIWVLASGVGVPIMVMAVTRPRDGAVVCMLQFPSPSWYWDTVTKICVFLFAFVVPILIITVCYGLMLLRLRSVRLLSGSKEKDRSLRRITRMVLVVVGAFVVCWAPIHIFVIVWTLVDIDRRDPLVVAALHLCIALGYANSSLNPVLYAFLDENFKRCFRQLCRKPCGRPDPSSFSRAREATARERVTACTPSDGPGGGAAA

[2] = target: T1, Neuropeptide Y receptor type 1 (Homo sapiens, UniProt P25929); assay type: cell membranes, Membrane; conditions: sk-n-mc
T1 sequence (P25929 whole entry): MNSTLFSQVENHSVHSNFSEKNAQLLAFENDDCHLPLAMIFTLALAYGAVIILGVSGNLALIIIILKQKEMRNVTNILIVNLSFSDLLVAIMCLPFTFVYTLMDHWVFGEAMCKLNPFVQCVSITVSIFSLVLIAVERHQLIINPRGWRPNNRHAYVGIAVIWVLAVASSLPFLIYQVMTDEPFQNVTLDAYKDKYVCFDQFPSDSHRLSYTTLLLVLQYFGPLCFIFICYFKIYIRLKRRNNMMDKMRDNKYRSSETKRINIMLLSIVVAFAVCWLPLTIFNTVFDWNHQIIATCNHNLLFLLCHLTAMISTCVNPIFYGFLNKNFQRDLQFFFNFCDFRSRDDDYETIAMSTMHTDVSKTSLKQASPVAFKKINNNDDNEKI

[3] = target: T2, Cytochrome P450 1A2 (Homo sapiens, UniProt P05177); conditions: bti-tn-5b1-4
T2 sequence (P05177 whole entry): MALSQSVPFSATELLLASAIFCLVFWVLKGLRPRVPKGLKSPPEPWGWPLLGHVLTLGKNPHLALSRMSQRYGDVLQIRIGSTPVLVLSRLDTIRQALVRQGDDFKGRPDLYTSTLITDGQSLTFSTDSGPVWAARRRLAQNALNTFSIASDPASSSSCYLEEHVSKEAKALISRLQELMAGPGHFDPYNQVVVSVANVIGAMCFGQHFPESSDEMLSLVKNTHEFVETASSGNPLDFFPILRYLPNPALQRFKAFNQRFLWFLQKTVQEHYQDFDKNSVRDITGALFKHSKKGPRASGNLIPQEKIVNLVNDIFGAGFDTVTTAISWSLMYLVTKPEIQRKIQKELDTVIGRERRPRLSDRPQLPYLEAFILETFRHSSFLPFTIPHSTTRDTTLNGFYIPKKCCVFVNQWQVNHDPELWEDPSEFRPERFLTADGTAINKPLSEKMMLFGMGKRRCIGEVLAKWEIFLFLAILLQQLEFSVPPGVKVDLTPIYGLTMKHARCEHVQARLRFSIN

[4] = target: T3, Polyunsaturated fatty acid lipoxygenase ALOX15 (Oryctolagus cuniculus, UniProt P12530); assay: biochemical; assay type: tissue-based, Reticulocytes; conditions: reticulocytes;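 note: inhibition of 15-lipoxygenase enzyme activity measured with linoleic acid as the substrate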
T3 sequence (P12530 whole entry): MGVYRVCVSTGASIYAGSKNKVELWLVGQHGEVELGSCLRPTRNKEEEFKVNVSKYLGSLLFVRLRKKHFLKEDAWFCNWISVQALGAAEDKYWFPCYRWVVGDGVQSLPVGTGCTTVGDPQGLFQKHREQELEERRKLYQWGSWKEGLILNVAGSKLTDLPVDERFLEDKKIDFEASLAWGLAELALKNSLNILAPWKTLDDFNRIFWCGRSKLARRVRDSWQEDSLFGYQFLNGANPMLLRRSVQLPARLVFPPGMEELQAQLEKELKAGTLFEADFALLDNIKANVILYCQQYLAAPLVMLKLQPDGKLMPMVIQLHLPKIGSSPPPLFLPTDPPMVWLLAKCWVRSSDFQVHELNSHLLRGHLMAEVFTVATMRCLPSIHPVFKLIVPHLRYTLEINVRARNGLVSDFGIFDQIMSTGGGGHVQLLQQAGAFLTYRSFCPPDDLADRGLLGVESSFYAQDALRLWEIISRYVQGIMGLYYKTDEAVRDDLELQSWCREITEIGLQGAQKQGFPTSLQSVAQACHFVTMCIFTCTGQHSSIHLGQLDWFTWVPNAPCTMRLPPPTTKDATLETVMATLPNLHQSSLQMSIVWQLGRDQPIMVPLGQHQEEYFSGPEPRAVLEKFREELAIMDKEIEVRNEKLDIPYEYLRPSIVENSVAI

[5] = target: Estrogen receptor beta (Homo sapiens, UniProt Q92731); conditions: sf9
Sequence of Estrogen receptor beta (Q92731 whole entry): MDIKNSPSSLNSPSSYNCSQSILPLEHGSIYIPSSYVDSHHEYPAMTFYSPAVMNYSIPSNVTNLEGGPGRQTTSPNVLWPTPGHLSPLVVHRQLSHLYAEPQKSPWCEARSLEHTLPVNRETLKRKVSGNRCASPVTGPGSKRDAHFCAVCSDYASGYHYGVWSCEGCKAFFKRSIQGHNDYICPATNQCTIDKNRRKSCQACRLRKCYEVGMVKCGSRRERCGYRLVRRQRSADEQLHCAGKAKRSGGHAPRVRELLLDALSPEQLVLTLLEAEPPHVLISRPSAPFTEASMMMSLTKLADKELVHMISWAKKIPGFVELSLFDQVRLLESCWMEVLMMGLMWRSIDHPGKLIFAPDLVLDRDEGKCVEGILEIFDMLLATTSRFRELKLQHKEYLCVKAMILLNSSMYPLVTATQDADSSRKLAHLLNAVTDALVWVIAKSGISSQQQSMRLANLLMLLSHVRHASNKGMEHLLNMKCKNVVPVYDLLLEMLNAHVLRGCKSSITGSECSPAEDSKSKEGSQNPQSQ

[6] = target: C-C chemokine receptor type 2 (Homo sapiens, UniProt P41597); assay type: cell membranes, CHO-K1, Membrane; conditions: cho-k1
Sequence of C-C chemokine receptor type 2 (P41597 whole entry): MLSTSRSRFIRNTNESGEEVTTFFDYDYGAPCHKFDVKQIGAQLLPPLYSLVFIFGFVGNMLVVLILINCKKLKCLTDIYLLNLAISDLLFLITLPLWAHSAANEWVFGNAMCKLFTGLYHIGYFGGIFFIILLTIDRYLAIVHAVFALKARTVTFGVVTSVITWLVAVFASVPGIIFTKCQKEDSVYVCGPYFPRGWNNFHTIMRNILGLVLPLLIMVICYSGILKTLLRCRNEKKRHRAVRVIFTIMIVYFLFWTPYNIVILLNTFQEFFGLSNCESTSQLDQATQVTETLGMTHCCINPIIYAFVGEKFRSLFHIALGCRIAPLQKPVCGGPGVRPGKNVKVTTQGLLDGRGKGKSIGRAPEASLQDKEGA

[7] = target: Tyrosine-protein kinase Fyn (Homo sapiens, UniProt P06241); assay: biochemical; assay type: cell-based, Insect cells;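 note: enzymatic inhibition of Fyn kinase activity measured with Poly(Glu:Tyr) as the phosphorylation substrate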
Sequence of Tyrosine-protein kinase Fyn (P06241 whole entry): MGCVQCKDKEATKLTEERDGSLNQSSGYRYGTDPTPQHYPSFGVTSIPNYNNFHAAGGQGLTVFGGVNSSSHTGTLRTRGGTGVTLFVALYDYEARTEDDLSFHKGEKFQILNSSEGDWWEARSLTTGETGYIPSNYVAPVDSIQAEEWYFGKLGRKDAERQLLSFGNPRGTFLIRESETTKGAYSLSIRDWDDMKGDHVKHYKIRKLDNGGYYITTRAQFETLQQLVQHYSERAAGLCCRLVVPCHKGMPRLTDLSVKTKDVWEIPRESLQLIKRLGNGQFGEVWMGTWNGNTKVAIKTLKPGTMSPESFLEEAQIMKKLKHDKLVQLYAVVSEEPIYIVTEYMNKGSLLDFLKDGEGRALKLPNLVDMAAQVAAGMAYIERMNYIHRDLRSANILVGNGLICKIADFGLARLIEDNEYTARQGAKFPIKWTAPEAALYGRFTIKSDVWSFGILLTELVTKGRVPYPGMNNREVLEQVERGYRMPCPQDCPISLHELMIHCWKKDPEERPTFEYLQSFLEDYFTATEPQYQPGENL

[8] = target: T4, Cholecystokinin receptor type A (Homo sapiens, UniProt P32238); assay type: cell membranes, Membrane; conditions: 1321-n1
T4 sequence (P32238 whole entry): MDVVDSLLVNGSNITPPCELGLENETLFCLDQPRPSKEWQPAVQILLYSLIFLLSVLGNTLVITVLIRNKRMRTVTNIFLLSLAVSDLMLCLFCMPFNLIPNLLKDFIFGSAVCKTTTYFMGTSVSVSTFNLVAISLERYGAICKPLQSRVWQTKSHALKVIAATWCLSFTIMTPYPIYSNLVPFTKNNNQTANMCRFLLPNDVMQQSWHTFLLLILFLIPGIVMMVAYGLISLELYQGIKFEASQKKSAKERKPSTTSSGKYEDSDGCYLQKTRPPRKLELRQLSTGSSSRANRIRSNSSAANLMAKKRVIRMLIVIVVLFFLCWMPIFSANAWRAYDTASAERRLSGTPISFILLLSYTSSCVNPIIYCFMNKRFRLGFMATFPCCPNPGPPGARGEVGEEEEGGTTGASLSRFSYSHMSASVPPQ
Note: in other assays of this panel Not Active means under 50% inhibition at 10 µM.

SMILES	IC50 [1]	IC50 [2]	IC50 [3]	Ki [3]	IC50 [4]	IC50 [5]	IC50 [6]	IC50 ([7]; insect cells)	IC50 [8]	IC50 ([7]; read-out: IC50)
CC(NC(C)(C)C)C(=O)c1cccc(Cl)c1 (stereo not given) [BUPROPION]	Not Active	Not Active	Not Active	Not Active	Not Active	Not Active	Not Active	Not Active	Not Active	–
COc1cc2c3cc1Oc1cc(ccc1O)C[C@@H]1c4c(cc(OC)c(O)c4Oc4ccc(cc4)C[C@@H]3N(C)CC2)CC[N+]1(C)C.[Cl-]	Not Active	Not Active	Not Active	Not Active	Not Active	Not Active	Not Active	Not Active	Not Active	–
CCC(C)n1ncn(-c2ccc(N3CCN(c4ccc(OCC5COC(Cn6cncn6)(c6ccc(Cl)cc6Cl)O5)cc4)CC3)cc2)c1=O (stereo not given) [ITRACONAZOLE]	Not Active	Not Active	Not Active	Not Active	Not Active	Not Active	Not Active	–	Not Active	3.89 µM
C[C@H]1O[C@@H](O[C@H]2[C@@H](O)C[C@H](O[C@H]3[C@@H](O)C[C@H](O[C@H]4CC[C@@]5(C)[C@H](CC[C@@H]6[C@@H]5C[C@@H](O)[C@]5(C)[C@@H](C7=CC(=O)OC7)CC[C@]65O)C4)O[C@@H]3C)O[C@@H]2C)C[C@H](O)[C@@H]1O [DIGOXIN]	Not Active	Not Active	Not Active	Not Active	Not Active	Not Active	Not Active	Not Active	Not Active	–
Cc1c2oc3c(C)ccc(C(=O)N[C@@H]4C(=O)N[C@H](C(C)C)C(=O)N5CCC[C@H]5C(=O)N(C)CC(=O)N(C)[C@@H](C(C)C)C(=O)O[C@@H]4C)c3nc-2c(C(=O)N[C@@H]2C(=O)N[C@H](C(C)C)C(=O)N3CCC[C@H]3C(=O)N(C)CC(=O)N(C)[C@@H](C(C)C)C(=O)O[C@@H]2C)c(N)c1=O [DACTINOMYCIN] (I: T[dV]P[Sar][NMeV] / II: T[dV]P[Sar][NMeV]; ester I:1-I:C, II:1-II:C; linker I:N-II:N via Actinocin(1to9))	Not Active	Not Active	Not Active	Not Active	Not Active	Not Active	Not Active	Not Active	Not Active	–
CN(C)c1nc(N(C)C)nc(N(C)C)n1 [ALTRETAMINE]	Not Active	Not Active	–	–	Not Active	Not Active	Not Active	Not Active	Not Active	–
c1ccc2c(c1)c1cccc3ccc4cccc2c4c31 [BENZO[E]PYRENE]	Not Active	Not Active	–	–	Not Active	Not Active	Not Active	Not Active	Not Active	–
Nc1c(Br)cc(Br)cc1CN[C@H]1CC[C@H](O)CC1 [AMBROXOL]	Not Active	Not Active	–	–	Not Active	Not Active	Not Active	Not Active	Not Active	–
CN(C)CCCN1c2ccccc2Sc2ccccc21 [PROMAZINE]	Not Active	Not Active	–	–	Not Active	Not Active	Not Active	Not Active	Not Active	–
CC1(C)S[C@@H]2[C@H](NC(=O)Cc3ccccc3)C(=O)N2[C@H]1C(=O)O [PENICILLIN G]	Not Active	Not Active	–	–	Not Active	Not Active	Not Active	Not Active	Not Active	–
